Legend:
[1] = tested on: RS4;11 acute lymphoblastic leukemia (ALL) subcutaneous xenograft; assay: RS4;11 ALL subcutaneous xenograft model; assay type: in vivo, NCG mice
Protocol: The RS4;11 cells are of acute lymphoblastic leukemia (ALL) origin and were obtained from American Type Culture Collection (ATCC CRL-1873, Manassas, VA, DC, USA). Cells were grown in RPM 1640 medium (Corning, Cat #10-040-CVR), supplemented with 10% (v/v) fetal bovine serum (Gibco, Cat #10099-141C), and 100 μg/mL of penicillin and streptomycin (Gibco, Cat #15140-122). RS4;11 cells were maintained as suspension cell cultures at 37° C. in a 5% CO2 atmosphere. Five to six-week-old female NCG mice were purchased from Gempharmatech of Information Technology Center. All animals were maintained under specific pathogen free (SPF) “full barrier” condition with free access to food and water. Mice were group-housed under a 12 h light:dark cycle (lights on at 08:00 h), at a temperature of 20-26° C. and 37-62% humidity in IVC cages (Lingyunboji (Beijing) Technology Co., Ltd.). Mice were fed with complete granulated feed with Co60 radiosterilization (Beijing Ke Ao Xie Li Feed Co., Ltd.).
(§1) On the day of implantation, RS4;11 cells were harvested and re-suspended with appropriate volume of ice cold DPBS and same volume of Matrigel (Corning, Cat #356237) to give a final concentration of 5×10^7 cells/mL. Re-suspended cells were placed on ice prior to inoculation. The right front flank region of each mouse was cleaned with 75% ethanol prior to cell inoculation. Each animal was injected subcutaneously with 1×10^7 cells in 200 μL of cell suspension in the right front flank via a 26-gauge needle. After implantation, primary tumor volume was measured in two dimensions using a caliper.
Animals were randomly assigned into 10 groups with 10 mice per group according to body weight and tumor volume (100 mm^3-200 mm^3). The groups consisted of vehicle group, 5, 15, 50 mg/kg of venetoclax with QD dosing, 5, 15, 50 mg/kg of Compound 1 with QD dosing, and 2.5, 7.5, 25 mg/kg of Compound 1 with BID dosing. Treatments were administered by oral gavage (p.o.) in a volume of 10 mL/kg body weight. Body weight was assessed immediately before dosing and volume dosed was adjusted accordingly.
(§2) Individual body weight was recorded twice weekly, with mice being monitored daily for clinical signs of toxicity for the duration of the study. Mice were euthanized using carbon dioxide when their tumor volume reached 2,000 mm^3, the tumor was ulcerated, or body weight loss exceeded 20%.
Tumor volume was calculated using the formula: V=0.5×(a×b^2) where a and b are the long and short diameters of the tumor, respectively.

[2] = tested on: Toledo diffuse large B cell lymphoma (DLBCL) subcutaneous xenograft; assay: Toledo DLBCL subcutaneous xenograft model; assay type: in vivo, NCG mice
Protocol: Toledo cells are of diffuse large B cell lymphoma (DLBCL) origin and were obtained from American Type Culture Collection (ATCC CRL-2631, Manassas, VA, DC, USA). Cells were grown in RPMI 1640 medium (Corning. Cat #10-040-CVR), supplemented with 10% (v/v) fetal bovine serum (Gibco, Cat #10099-141C), and 100 μg/mL of penicillin and streptomycin (Gibco, Cat #15140-122). Toledo cells were maintained as suspension cell cultures at 37° C. in a 5% CO2 atmosphere. Five to six-week-old female NCG mice were purchased from Gempharmatech of Information Technology Center. All animals were maintained under specific pathogen free (SPF) “full barrier” condition with free access to food and water. Mice were group-housed under a 12 h light:dark cycle (lights on at 08:00 h), at a temperature of 21-26° C. and 35-61% humidity in IVC cages (Lingyunboji (Beijing) Technology Co., Ltd.). Mice were fed with complete granulated feed with Co60 radiosterilization (Beijing Ke Ao Xie Li Feed Co., Ltd.).
as §1, with “Toledo” for “RS4;11”, “1.5×10^7” for “5×10^7”, “3×10^6” for “1×10^7”
Transplanted animals were randomized into 10 groups with 10 mice per group on day 0 according to transplantation sequence and body weight. The groups consisted of vehicle group, 5, 15, 50 mg/kg of venetoclax with QD dosing, 5, 15, 50 mg/kg of Compound 1 with QD dosing, and 2.5, 7.5, 25 mg/kg of Compound 1 with BID dosing. Treatments were administered by oral gavage (p.o.) in a volume of 10 mL/kg body weight. Body weight was assessed immediately before dosing and volume dosed was adjusted accordingly.
as §2
Tumor volume was calculated using the formula: V=0.5×(a×b^2) where a and b are the long and short diameters of the tumor, respectively. Tumor growth inhibition (TGI) was calculated using the following formula: % TGI=100×[1−(treatedt−treatedt0)/(vehiclet−vehiclet0)] (treated t=treated tumor volume at time t, treated t0=treated tumor volume at time 0, vehicle t=vehicle tumor volume at time t and vehicle t0=vehicle tumor volume at time 0)

[3] = same total daily doses of 5 and 15 mg/kg

| Compound | Mean Tumor volume (Day 42) (mm^3 ± SEM) ([1]; 15 mg/kg QD × 42 p.o.) [mm^3] | Mean Tumor volume (Day 42) (mm^3 ± SEM) ([1]; 50 mg/kg QD × 42 p.o.) [mm^3] | Mean Tumor volume (Day 31) (mm^3 ± SEM) ([2]; 5 mg/kg QD × 31 p.o.) [mm^3] | TGI (Day 31) ([2]; 5 mg/kg QD × 31 p.o.) [%] | Mean Tumor volume (Day 31) (mm^3 ± SEM) ([2]; 15 mg/kg QD × 31 p.o.) [mm^3] | TGI (Day 31) ([2]; 15 mg/kg QD × 31 p.o.) [%] | Mean Tumor volume (Day 31) (mm^3 ± SEM) ([2]; 50 mg/kg QD × 31 p.o.) [mm^3] | TGI (Day 31) ([2]; 50 mg/kg QD × 31 p.o.) [%] | other results |
| --- | --- | --- | --- | --- | --- | --- | --- | --- | --- |
| CC(C)c1ccccc1[C@@H]1CCCN1C1CC2(CCN(c3ccc(C(=O)NS(=O)(=O)c4ccc(NCC5CCC(C)(O)CC5)c([N+](=O)[O-])c4)c(Oc4cnc5[nH]ccc5c4)c3)CC2)C1 (stereo partly drawn) [Compound 1, 2-((1H-pyrrolo[2,3-b]pyridin-5-yl)oxy)-N-((4-((((1r,4r)-4-hydroxy-4-methylcyclohexyl)methyl)amino)-3-nitrophenyl)sulfonyl)-4-(2-((S)-2-(2-isopropylphenyl)pyrrolidin-1-yl)-7-azaspiro[3.5]nonan-7-yl)benzamide] | 312.6 ± 57.9 | 141.8 ± 5.1 | 679.3 ± 63.2 | 60 | 267.4 ± 30.4 | 84 | 214.8 ± 19.4 | 87 | Mean Tumor volume (Day 42) (mm^3 ± SEM) ([1]; 2.5 mg/kg BID × 42 p.o.): 512.5 ± 115.9 mm^3; Mean Tumor volume (Day 42) (mm^3 ± SEM) ([1]; 5 mg/kg QD × 42 p.o.): 820.9 ± 140.2 mm^3; Mean Tumor volume (Day 42) (mm^3 ± SEM) ([1]; 7.5 mg/kg BID × 42 p.o.): 252.8 ± 48.3 mm^3; Mean Tumor volume (Day 42) (mm^3 ± SEM) ([1]; 25 mg/kg BID × 42 p.o.): 136.6 ± 2.2 mm^3; tumor growth inhibition (in words) ([1]; oral administration at well tolerated doses): potently and dose-dependently inhibited tumor growth; efficacy compared with venetoclax [1, 3]: significantly better efficacy when compared with venetoclax; Mean Tumor volume (Day 31) (mm^3 ± SEM) ([2]; 2.5 mg/kg BID × 31 p.o.): 515.7 ± 79.1 mm^3; TGI (Day 31) ([2]; 2.5 mg/kg BID × 31 p.o.): 70%; Mean Tumor volume (Day 31) (mm^3 ± SEM) ([2]; 7.5 mg/kg BID × 31 p.o.): 230.5 ± 25.9 mm^3; TGI (Day 31) ([2]; 7.5 mg/kg BID × 31 p.o.): 86%; Mean Tumor volume (Day 31) (mm^3 ± SEM) ([2]; 25 mg/kg BID × 31 p.o.): 182.5 ± 15.9 mm^3; TGI (Day 31) ([2]; 25 mg/kg BID × 31 p.o.): 89%; anti-tumor effects (in words) ([2]; 2.5, 7.5, 25 mg/kg BID or 5, 15, 50 mg/kg QD, oral): induced dose-dependent anti-tumor effects; efficacy compared with venetoclax [2, 3]: significantly better efficacy when compared with venetoclax |
| CC1(C)CCC(CN2CCN(c3ccc(C(=O)NS(=O)(=O)c4ccc(NCC5CCOCC5)c([N+](=O)[O-])c4)c(Oc4cnc5[nH]ccc5c4)c3)CC2)=C(c2ccc(Cl)cc2)C1 [Venetoclax, reference compound] | 1070.6 ± 181.1 | 288.4 ± 37.8 | 1256.5 ± 136.5 | 26 | 847.8 ± 109.4 | 50 | 258.3 ± 22.6 | 85 | Mean Tumor volume (Day 42) (mm^3 ± SEM) ([1]; 5 mg/kg QD × 35 p.o.): >2000 mm^3 |

From patent publication US20240122932A1, “Methods of Treating B-Cell Malignancy Using Bcl-2 Inhibitor” (BeiGene Switzerland GmbH, priority 2021, published 2024)
